Assay results published in patent US20080234368A9, “Therapeutic compositions and methods of use” (Trustees of Dartmouth College, priority 1998, published 2008).
pIC50: −log10 of the molar value.

Tests used:
[1] = system: IFN-γ-induced NO production in mouse macrophages; test: Inhibition of IFN-γ induced NO production in mouse macrophages; format: cell-based; details: Mus musculus, Macrophage; 4 ng/mL IFN-γ, 48 hours, nitrite by Griess reaction; average of two separate experiments; read-out: IC50 for Inhibition of IFN-γ-Induced NO Production in Mouse Macrophages
Experimental: The inhibitory activities of these compounds and dexamethasone on IFN-γ induced NO production in mouse macrophages is shown below in Table 1. The following procedure for the assay ws used. Macrophages were harvested from female mice injected intraperitoneally four days previously with 4% thioglycollate. These cells were seeded in 96-well tissue culture plates and incubated with 4 ng/mL IFN-γ in the presence or absence of inhibitory test compounds. After 48 hours NO production (measured as nitrite by the Griess reaction) was determined. Full details of the assay are given in Ding et al., 1990; Bogdan et al., 1992.

[2] = system: NRP-152 non-malignant prostate epithelium cells; test: Suppression of thymidine incorporation, dose-response (FIG. 13); format: cell-based, rat; details: NRP-152, 72 h; oleanolic acid statement at concentrations of 1 μM or less
Experimental: (§1) Inhibitors of cell proliferation are known to be useful chemopreventive and chemotherapeutic agents. CDDO was tested against a wide variety of cells derived from highly aggressive leukemias and carcinomas, as well as from non-neoplastic tissues. NRP-152 cells were grown as described in Danielpour et al., 1994. MCF-7 cells were grown in phenol red-free RPMI 1640/10% charcoal-stripped FBS with added 17-β-estradiol (10 μM). Triterpenoids were added at the time of plating, and 72 h later ^3H-thymidine (1 μCi/well) was added for the final 2 h of incubation. Incorporation of thymidine was measured after cells were precipitated with TCA (10%), washed, and solubilized. The symbols used in FIG. 13 are CDDO, ▪; TP-82, ◯; and oleanolic acid; ●.

[3] = system: MCF-7 breast carcinoma cells; test: as above; format: cell-based, human; details: MCF-7 with 17-β-estradiol, 72 h; oleanolic acid statement at concentrations of 1 μM or less
Experimental: as §1

[4] = system: LCDB acute myelogenous leukemia cell line; test: Monocytic differentiation, α-naphthyl acetate esterase staining; format: cell-based, human; details: TGF-β1 2.5 ng/ml, 48 h
Experimental: CDDO induces monocytic differentiation in the poorly differentiated LCDB acute myelogenous leukemia cell line, derived from a chemotherapy-resistant patient at the NCI Pediatric Oncology Branch. FIG. 11 illustrates LCDB cells seeded in RPMI 1640/2% FBS, either alone (11A), with 2.5 ng/ml TGF-β1 (11B), with 10^−8 M CDDO (11C), or with both TGF-β1 and CDDO (11D). After 48 h, cytospin slide preparations were made and stained for α-naphthyl acetate esterase activity (kit from Sigma). PC12 cells were cultured for 5 days in gridded dishes in DMEM/10% FBS and 5% horse serum (Smith et al., 1997), either alone (11E), with 100 ng/ml 7S NGF (11F), with 10^−6 M CDDO (11G), or with both NGF and CDDO (11H). […] Methods for quantitative image analysis of size of cells and neurites have been described (De 1a Torre et al., 1997). Control cells in FIG. 11E are approximately 10 μm in diameter. 3T3-L1 cells were grown to confluency in DMEM/5% calf serum, and then treated once with CDDO in DMEM/10% FBS (FIG. 12A) or with CDDO and/or LG100268 in DMEM/10% FBS (FIG. 12B). Every two days thereafter, medium was changed to DMEM/10% FBS, without added CDD0 or LG100268. Cells were harvested on day 8 (FIG. 12A) or day 6 (FIG. 12B), and GPDH was measured in lysates, using a standard assay for consumption of NADH at 340 nm (Wise and Green, 1979).

pIC50 [1]	Compound	suppressing thymidine incorporation [2]	suppressing thymidine incorporation [3]	induction of α-naphthyl esterase activity (monocytic differentiation) [4]
9.00	C[C@@H]1C[C@H]2[C@@H]3CCC4=CC(=O)C=C[C@]4(C)[C@@]3(F)[C@@H](O)C[C@]2(C)[C@@]1(O)C(=O)CO [dexamethasone, reference compound]	–	–	–
–	3,11-dioxoolean-1,9-dien-28oic acid [TP-82]	markedly less active	markedly less active	–
–	TGF-01: transforming growth factor-β1	–	–	induced x-naphthyl esterase activity
–	CC1(C)CC[C@]2(C(=O)O)CC[C@]3(C)C(=CC[C@@H]4[C@@]5(C)CC[C@H](O)C(C)(C)[C@@H]5CC[C@]43C)[C@@H]2C1 [oleanolic acid, reference compound]	virtually without activity	virtually without activity	–
